Test results as given in patent publication EP4745137A1 (Gluetacs Therapeutics (Shanghai) Co., Ltd., priority 2023, dated 2025).

What was measured:
SW620 = test: Tumor cell proliferation inhibition (CellTiter-Meiluncell Luminescent Cell Viability Assay), SW620; conditions: Homo sapiens, SW-620, 96 h, read-out: inhibitory activity (IC50, nM) against tumor cells proliferation, SW620
Method: (§1) The tumor cells used herein were cultured in a cell culture medium listed in table 2 at 37°C in an incubator with 5% CO2. Prior to experimentation, all cell lines used were correctly identified by STR profiling, and tested negative for mycoplasma contamination using a mycoplasma detection kit through routine screenings.
(§2) On the following day, the test compounds of the present disclosure were subjected to serial dilution. […] Subsequently, 0.5 µL of the test compound dilution was transferred into the 96-well plate containing the cells, with each well containing 100 µL of cell culture medium. […] Into the 96-well plate, the diluted test compounds and corresponding detection reagents were added, resulting in final test compound concentrations of 500 nM and 10 nM, respectively. The experimental procedure is described below using the diluted 2 µM test compound as an example.
(§3) After the cells were treated with the compounds of the present disclosure for a specified period (the treatment durations were shown in Table 3), the cell viability assay reagent was added to the culture medium according to the kit's instructions to determine cell viability. […] All controls were treated using the same procedure as the compounds of the present disclosure. The growth inhibition curves for the compounds of the present disclosure were plotted using Prism GraphPad software, and the IC50 values were calculated therefrom.

CK1α = target: T1, CK1α (Homo sapiens, UniProt P48729+Q96SW2); test: Western-blot assay of substrate protein degradation in hPBMCs, CK1α; format: cell-based; conditions: 24 hours of compound treatment, compounds tested at 50 nM and 500 nM (concentration of the table not stated)
T1 construct: endogenous in cells; host or cells: hPBMCs (Milecell Biotechnologies)

IKZF3 = target: T2, IKZF3 (Homo sapiens, UniProt Q96SW2+Q9UKT9); test: Western-blot assay of substrate protein degradation in hPBMCs, IKZF3; format: cell-based; conditions: 24 hours of compound treatment, compounds tested at 50 nM and 500 nM (concentration of the table not stated)
T2 construct: endogenous in cells; host or cells: hPBMCs (Milecell Biotechnologies)
T2 sequence (Q9UKT9 whole entry): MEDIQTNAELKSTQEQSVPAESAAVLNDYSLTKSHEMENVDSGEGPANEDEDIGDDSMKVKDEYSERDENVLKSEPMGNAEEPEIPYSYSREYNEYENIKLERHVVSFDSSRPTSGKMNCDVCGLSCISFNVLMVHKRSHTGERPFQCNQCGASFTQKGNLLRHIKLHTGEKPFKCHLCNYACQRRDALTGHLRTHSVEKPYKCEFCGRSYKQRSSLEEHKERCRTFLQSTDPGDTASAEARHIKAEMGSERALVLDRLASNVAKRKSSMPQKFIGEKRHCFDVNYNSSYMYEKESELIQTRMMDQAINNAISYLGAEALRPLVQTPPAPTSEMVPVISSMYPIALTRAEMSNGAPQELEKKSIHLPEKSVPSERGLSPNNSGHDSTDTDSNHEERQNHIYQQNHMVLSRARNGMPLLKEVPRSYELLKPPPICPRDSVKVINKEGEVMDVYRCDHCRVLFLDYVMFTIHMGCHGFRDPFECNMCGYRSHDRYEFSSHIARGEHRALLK
T2 sequence (Q96SW2 whole entry): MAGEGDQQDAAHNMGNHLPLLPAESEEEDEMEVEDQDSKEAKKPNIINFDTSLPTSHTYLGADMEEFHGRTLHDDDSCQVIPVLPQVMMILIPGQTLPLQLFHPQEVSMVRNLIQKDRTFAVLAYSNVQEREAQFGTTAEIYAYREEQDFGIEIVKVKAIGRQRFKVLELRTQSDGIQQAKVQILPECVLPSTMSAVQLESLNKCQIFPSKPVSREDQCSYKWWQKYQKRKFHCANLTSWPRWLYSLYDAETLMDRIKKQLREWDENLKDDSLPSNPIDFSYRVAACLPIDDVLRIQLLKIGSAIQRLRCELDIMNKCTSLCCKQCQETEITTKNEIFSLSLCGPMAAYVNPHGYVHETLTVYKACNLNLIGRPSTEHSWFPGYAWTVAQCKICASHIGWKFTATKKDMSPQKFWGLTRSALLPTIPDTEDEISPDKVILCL
T2 sequence (Q16531 whole entry partner): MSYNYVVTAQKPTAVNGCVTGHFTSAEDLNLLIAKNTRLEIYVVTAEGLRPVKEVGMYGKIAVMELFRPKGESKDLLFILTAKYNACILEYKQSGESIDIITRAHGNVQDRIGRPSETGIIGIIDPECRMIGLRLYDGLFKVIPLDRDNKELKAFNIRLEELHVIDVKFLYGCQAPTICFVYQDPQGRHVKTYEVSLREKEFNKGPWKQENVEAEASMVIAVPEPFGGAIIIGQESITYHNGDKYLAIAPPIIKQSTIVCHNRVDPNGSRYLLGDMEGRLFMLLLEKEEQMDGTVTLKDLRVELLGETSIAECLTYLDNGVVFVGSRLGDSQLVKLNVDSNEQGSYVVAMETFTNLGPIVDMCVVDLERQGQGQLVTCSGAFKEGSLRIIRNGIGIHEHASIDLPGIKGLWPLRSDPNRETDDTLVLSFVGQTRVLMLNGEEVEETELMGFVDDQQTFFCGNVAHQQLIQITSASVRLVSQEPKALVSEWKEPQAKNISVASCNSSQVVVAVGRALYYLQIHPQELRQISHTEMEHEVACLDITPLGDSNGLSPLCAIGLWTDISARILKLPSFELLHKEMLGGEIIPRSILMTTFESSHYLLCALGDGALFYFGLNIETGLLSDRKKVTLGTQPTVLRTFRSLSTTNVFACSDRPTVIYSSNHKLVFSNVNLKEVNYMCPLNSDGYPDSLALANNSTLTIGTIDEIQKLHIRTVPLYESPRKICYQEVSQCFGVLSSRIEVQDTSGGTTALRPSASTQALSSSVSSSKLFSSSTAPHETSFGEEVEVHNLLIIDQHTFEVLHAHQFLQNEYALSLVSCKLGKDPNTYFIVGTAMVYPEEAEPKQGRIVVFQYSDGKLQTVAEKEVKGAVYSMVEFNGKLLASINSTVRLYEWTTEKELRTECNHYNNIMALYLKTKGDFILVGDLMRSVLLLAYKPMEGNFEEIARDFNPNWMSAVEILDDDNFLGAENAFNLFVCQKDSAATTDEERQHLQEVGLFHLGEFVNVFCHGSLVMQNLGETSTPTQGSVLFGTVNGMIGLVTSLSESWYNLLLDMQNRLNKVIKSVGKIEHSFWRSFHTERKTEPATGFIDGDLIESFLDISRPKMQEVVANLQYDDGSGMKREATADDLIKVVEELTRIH

IKZF1 = target: T3, IKZF1 (Homo sapiens, UniProt Q13422+Q96SW2); test: Western-blot assay of substrate protein degradation in hPBMCs, IKZF1; format: cell-based; conditions: 24 hours of compound treatment, compounds tested at 50 nM and 500 nM (concentration of the table not stated)
T3 construct: endogenous in cells; host or cells: hPBMCs (Milecell Biotechnologies)
T3 sequence (Q13422 whole entry): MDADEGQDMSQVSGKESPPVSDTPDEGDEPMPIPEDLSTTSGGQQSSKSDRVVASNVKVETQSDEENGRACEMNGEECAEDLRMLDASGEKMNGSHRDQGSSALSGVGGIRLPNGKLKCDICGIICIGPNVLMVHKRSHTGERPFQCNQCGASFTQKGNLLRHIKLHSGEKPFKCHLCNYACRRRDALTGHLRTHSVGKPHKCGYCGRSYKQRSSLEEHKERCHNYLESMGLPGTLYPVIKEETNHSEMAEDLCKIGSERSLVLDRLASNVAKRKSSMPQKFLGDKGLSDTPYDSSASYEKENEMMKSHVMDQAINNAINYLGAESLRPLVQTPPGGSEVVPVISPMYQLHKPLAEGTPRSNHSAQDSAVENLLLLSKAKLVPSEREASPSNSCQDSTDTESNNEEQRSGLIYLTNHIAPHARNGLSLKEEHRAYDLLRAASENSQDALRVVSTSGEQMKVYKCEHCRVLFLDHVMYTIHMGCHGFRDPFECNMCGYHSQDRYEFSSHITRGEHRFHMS
T3 sequence (Q96SW2 whole entry): as the sequence (Q96SW2 whole entry) above
T3 sequence (Q16531 whole entry partner): as the sequence (Q16531 whole entry partner) above

NCI-H1975 = test: Tumor cell proliferation inhibition (CellTiter-Meiluncell Luminescent Cell Viability Assay), NCI-H1975; conditions: Homo sapiens, NCI-H1975, 96 h, read-out: inhibitory activity (IC50, nM) against tumor cells proliferation, H1975
Method: as §1, §2, §3

[1] = system: Human acute T lymphocytic leukemia cells (Molt-4); test: Tumor cell proliferation inhibition (CellTiter-Meiluncell Luminescent Cell Viability Assay), Molt-4; conditions: MOLT-4, 96 h, read-out: inhibitory activity (IC50, nM) against tumor cells proliferation, Molt 4
Method: as §1, §2, §3

CAL-62 = test: Tumor cell proliferation inhibition (CellTiter-Meiluncell Luminescent Cell Viability Assay), CAL-62; conditions: Homo sapiens, CAL-62, 96 h, read-out: inhibitory activity (IC50, nM) against tumor cells proliferation, CAL-62
IKZF2 = target: T4, IKZF2 (Homo sapiens, UniProt Q96SW2+Q9UKS7); test: Western-blot assay of substrate protein degradation in hPBMCs, IKZF2; format: cell-based; conditions: 24 hours of compound treatment, compounds tested at 50 nM and 500 nM (concentration of the table not stated)
T4 construct: endogenous in cells; host or cells: hPBMCs (Milecell Biotechnologies)
T4 sequence (Q9UKS7 whole entry): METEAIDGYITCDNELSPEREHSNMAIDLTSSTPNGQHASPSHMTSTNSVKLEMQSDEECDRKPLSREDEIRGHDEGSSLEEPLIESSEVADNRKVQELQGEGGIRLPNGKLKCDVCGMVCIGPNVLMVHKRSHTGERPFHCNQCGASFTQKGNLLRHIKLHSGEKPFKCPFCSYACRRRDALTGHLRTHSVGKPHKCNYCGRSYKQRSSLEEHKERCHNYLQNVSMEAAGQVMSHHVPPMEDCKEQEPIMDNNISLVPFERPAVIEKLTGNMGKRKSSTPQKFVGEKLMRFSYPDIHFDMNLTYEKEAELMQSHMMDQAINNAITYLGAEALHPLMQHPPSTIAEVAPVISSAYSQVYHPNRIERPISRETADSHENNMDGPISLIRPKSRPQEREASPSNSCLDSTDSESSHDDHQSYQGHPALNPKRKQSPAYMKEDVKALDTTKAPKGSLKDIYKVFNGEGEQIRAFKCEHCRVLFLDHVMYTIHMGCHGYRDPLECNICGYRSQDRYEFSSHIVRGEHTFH
T4 sequence (Q96SW2 whole entry): as the sequence (Q96SW2 whole entry) above
T4 sequence (Q16531 whole entry partner): as the sequence (Q16531 whole entry partner) above

CCRF-CEM = test: Tumor cell proliferation inhibition (CellTiter-Meiluncell Luminescent Cell Viability Assay), CCRF-CEM; conditions: Homo sapiens, 96 h, read-out: inhibitory activity (IC50, nM) against tumor cells proliferation, CCRF-CEM
GSPT1 = target: T5, GSPT1 (Homo sapiens, UniProt P15170+Q96SW2); test: Western-blot assay of substrate protein degradation in hPBMCs, GSPT1; format: cell-based; conditions: 24 hours of compound treatment, compounds tested at 50 nM and 500 nM (concentration of the table not stated)
T5 construct: endogenous in cells; host or cells: hPBMCs (Milecell Biotechnologies)
T5 sequence (P15170 whole entry): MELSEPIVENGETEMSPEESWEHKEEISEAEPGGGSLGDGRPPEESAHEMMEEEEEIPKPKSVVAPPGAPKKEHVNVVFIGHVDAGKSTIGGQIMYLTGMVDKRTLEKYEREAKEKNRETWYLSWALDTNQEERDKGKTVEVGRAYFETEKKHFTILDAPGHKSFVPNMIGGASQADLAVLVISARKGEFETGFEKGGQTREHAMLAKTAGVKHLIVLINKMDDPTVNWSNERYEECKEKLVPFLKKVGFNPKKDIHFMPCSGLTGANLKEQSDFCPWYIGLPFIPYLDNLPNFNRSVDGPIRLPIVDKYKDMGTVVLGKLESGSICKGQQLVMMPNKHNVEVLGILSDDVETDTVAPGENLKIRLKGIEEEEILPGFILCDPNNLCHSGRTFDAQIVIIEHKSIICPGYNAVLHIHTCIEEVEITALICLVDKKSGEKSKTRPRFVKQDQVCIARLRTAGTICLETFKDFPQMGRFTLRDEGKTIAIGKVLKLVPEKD
T5 sequence (Q96SW2 whole entry): as the sequence (Q96SW2 whole entry) above
T5 sequence (Q16531 whole entry partner): as the sequence (Q16531 whole entry partner) above

Vcap = test: Tumor cell proliferation inhibition (CellTiter-Meiluncell Luminescent Cell Viability Assay), Vcap; conditions: Homo sapiens, 96 h, read-out: inhibitory activity (IC50, nM) against tumor cells proliferation, Vcap
MM.1R = test: Tumor cell proliferation inhibition (CellTiter-Meiluncell Luminescent Cell Viability Assay), MM.1R; conditions: Homo sapiens, 96 h, read-out: inhibitory activity (IC50, nM) against tumor cells proliferation, MM.1R
Method: as §1, §2, §3

Jurkat = test: Tumor cell proliferation inhibition (CellTiter-Meiluncell Luminescent Cell Viability Assay), Jurkat; conditions: Homo sapiens, 96 h, read-out: inhibitory activity (IC50, nM) against tumor cells proliferation, Jurkat
WEE1 = target: T6, WEE1 (Homo sapiens, UniProt P30291+Q96SW2); test: Western-blot assay of substrate protein degradation in hPBMCs, WEE1; format: cell-based; conditions: 24 hours of compound treatment, compounds tested at 50 nM and 500 nM (concentration of the table not stated)
T6 construct: endogenous in cells; host or cells: hPBMCs (Milecell Biotechnologies)
T6 sequence (P30291 whole entry): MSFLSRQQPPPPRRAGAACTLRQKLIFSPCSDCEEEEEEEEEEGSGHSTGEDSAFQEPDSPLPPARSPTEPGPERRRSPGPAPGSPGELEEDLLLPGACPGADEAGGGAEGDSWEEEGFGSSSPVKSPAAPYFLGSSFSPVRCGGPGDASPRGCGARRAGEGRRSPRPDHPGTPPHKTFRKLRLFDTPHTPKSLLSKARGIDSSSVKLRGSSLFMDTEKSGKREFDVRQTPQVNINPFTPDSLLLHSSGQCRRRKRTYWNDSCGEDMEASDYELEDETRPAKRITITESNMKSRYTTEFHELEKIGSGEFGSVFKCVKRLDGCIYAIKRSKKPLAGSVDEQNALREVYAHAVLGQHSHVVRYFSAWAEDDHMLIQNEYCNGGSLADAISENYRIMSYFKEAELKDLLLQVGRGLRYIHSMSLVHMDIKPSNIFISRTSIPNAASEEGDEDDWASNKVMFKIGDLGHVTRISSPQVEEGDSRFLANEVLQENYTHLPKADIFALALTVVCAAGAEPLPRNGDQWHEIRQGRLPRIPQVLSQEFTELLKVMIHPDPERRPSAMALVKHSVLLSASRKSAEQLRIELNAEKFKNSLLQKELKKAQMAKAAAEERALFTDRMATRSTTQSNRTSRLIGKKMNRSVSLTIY
T6 sequence (Q96SW2 whole entry): as the sequence (Q96SW2 whole entry) above
T6 sequence (Q16531 whole entry partner): as the sequence (Q16531 whole entry partner) above

[2] = target: T7, human Cereblon WT GST-tagged protein (Homo sapiens, UniProt Q96SW2); test: CRBN-binding affinity by HTRF (CEREBLON BINDING kit); conditions: HTRF inhibitory activity, CEREBLON BINDING kit; read-out: HTRF IC50
T7 construct: purchased CISBIO 64BDCRBNPEH
T7 sequence (Q96SW2 whole entry): as the sequence (Q96SW2 whole entry) above

MGC803 = test: Tumor cell proliferation inhibition (CellTiter-Meiluncell Luminescent Cell Viability Assay), MGC803; conditions: Homo sapiens, MGC-803, 96 h, read-out: inhibitory activity (IC50, nM) against tumor cells proliferation, MGC803
[3] = system: Human breast cancer cells (MDA-MB-231); test: Tumor cell proliferation inhibition (CellTiter-Meiluncell Luminescent Cell Viability Assay), MDA-MB-231; conditions: MDA-MB-231, 96 h, read-out: inhibitory activity (IC50, nM) against tumor cells proliferation, MDA-MB-231
Method: as §1, §2, §3

Structure (SMILES)	IC50 (SW620) [nM]	CK1a substrate protein remaining % (CK1α)	IKZF3 substrate protein remaining % (IKZF3)	IKZF 1 substrate protein remaining % (IKZF1)	IC50 (NCI-H1975) [nM]	IC50 [1] [nM]	IC50 (CAL-62) [nM]	IKZF2 substrate protein remaining % (IKZF2)	IC50 (CCRF-CEM) [nM]	GSPT1 substrate protein remaining % (GSPT1)	IC50 (Vcap) [nM]	IC50 (MM.1R) [nM]	IC50 (Jurkat) [nM]	Weel substrate protein remaining % (WEE1)	IC50 [2] [µM]	IC50 (MGC803) [nM]	IC50 [3] [nM]
O=C1CCC(N2Cc3cc(CN4CCN(c5ccc(F)cc5F)CC4)ccc3C2=O)C(=O)N1 (centres unmarked) [GT-04438, 3-(5-((4-(2,4-difluorophenyl)piperazin-1-yl)methyl)-1-oxoisoindolin-2-yl)piperidine-2,6-dione]	100 to 500	A (0% ≤ substrate protein remaining % ≤ 80%)	A (0% ≤ substrate protein remaining % ≤ 80%)	A (0% ≤ substrate protein remaining % ≤ 80%)	500 to 1000	10 to 50	10 to 50	A (0% ≤ substrate protein remaining % ≤ 80%)	10 to 50	A (0% ≤ substrate protein remaining % ≤ 80%)	50 to 100	10 to 50	10 to 50	A (0% ≤ substrate protein remaining % ≤ 80%)	0.5 to 1		
COc1cccc(N2CCN(Cc3ccc4c(c3)CN(C3CCC(=O)NC3=O)C4=O)CC2)c1 (centres unmarked) [GT-04448, 3-(5-((4-(3-methoxyphenyl)piperazin-1-yl)methyl)-1-oxoisoindolin-2-yl)piperidine-2,6-dione]	100 to 500	A (0% ≤ substrate protein remaining % ≤ 80%)	A (0% ≤ substrate protein remaining % ≤ 80%)	A (0% ≤ substrate protein remaining % ≤ 80%)	100 to 500	10 to 50	10 to 50	A (0% ≤ substrate protein remaining % ≤ 80%)	10 to 50	A (0% ≤ substrate protein remaining % ≤ 80%)	50 to 100	10 to 50	10 to 50	A (0% ≤ substrate protein remaining % ≤ 80%)	1 to 1.5	500 to 1000	500 to 1000
O=C1CCC(N2Cc3cc(CN4CCC(c5ccccc5)CC4)ccc3C2=O)C(=O)N1 (centres unmarked) [GT-04465, 3-(1-oxo-5-((4-phenylpiperidin-1-yl)methyl)isoindolin-2-yl)piperidine-2,6-dione]	100 to 500	A (0% ≤ substrate protein remaining % ≤ 80%)	A (0% ≤ substrate protein remaining % ≤ 80%)	A (0% ≤ substrate protein remaining % ≤ 80%)	500 to 1000	10 to 50	10 to 50	A (0% ≤ substrate protein remaining % ≤ 80%)	10 to 50	A (0% ≤ substrate protein remaining % ≤ 80%)	50 to 100	10 to 50	10 to 50	A (0% ≤ substrate protein remaining % ≤ 80%)	1 to 1.5	100 to 500	
Cc1ccc(Cl)cc1N1CCN(Cc2ccc3c(c2)CN(C2CCC(=O)NC2=O)C3=O)CC1 (centres unmarked) [GT-04440, 3-(5-((4-(5-chloro-2-methylphenyl)piperazin-1-yl)methyl)-1-oxoisoindolin-2-yl)piperidine-2,6-dione]	500 to 1000	A (0% ≤ substrate protein remaining % ≤ 80%)	A (0% ≤ substrate protein remaining % ≤ 80%)	A (0% ≤ substrate protein remaining % ≤ 80%)	500 to 1000	5 to 10	10 to 50	A (0% ≤ substrate protein remaining % ≤ 80%)	10 to 50	A (0% ≤ substrate protein remaining % ≤ 80%)	50 to 100	10 to 50	10 to 50	A (0% ≤ substrate protein remaining % ≤ 80%)	0.5 to 1	500 to 1000	500 to 1000
